Test results from patent US9486506B2 (Novo Nordisk A/S, priority 2011, dated 2016).
Numbered stars: 1 amine (or outer) side, 2 acyl side, 3 side chain; on linkers, the order of the positions; unused ones are H or OH. Side chains are listed from the residue outwards. Peptide text beside a SMILES is read from it. * marks the point of attachment. C18 diacid = O=C(O)CCCCCCCCCCCCCCCCC(=O)*; C16 diacid = O=C(O)CCCCCCCCCCCCCCC(=O)*; γGlu = O=C(O)[C@H](CCC(=O)[*:2])N[*:1]; AEEA = NCCOCCOCC(=O)O

Key:
[1] = Assay (X) Chemical stability assessment by RP-UPLC; type: physicochemical; conditions: pH 8.15, 14 days at 37° C. vs 5° C., 333 μM
Protocol: Chemical Stability Assessment
Lyophilized samples were dissolved in buffer (see below for detailed compositions) to a final concentration of 333 μM and a pH of 8.15, and were incubated for 14 days at 5° C. and 37° C. followed by RP-UPLC analysis. Purity was defined as the area percentage of the main peak in relation to the total area of all integrated peaks in each chromatogram. Purity loss after 14 days at 37° C. was determined as the difference in purity between the samples incubated at 5° C. and 37° C., divided by the purity of the sample after incubation for 14 days at 5° C.
RP-UPLC analysis was performed using a Waters BEH130 2.1 mm×150 mm, 1.7 μm column operated at 50° C. and a flow rate of 0.4 mL/min using a mobile phase system consisting of typically A: 50 mM Phosphate, 10 w/w % Acetonitrile pH 3 and B: 80 v/v Acetonitrile. UV-detection was performed at 215 nm. The typical gradient profile used for most of the samples is shown below.
For some individual analogues eluting at substantially different retention times compared with the majority of analogues, some adjustments to the gradient profile were made to better enable purity assessment comparison across samples. Also the composition of the channel B mobile phase component was in some of the analyses exchanged for a 90 v/v % Acetonitrile solvent solution in an attempt to better handle carry-over of material from one injection to the next in the sequence. This was however compensated for by recalculating the gradient profile appropriately.
Buffer: • 50 mM Dinatriumphosphatdihydrat • 184 mM Propylenglycol • 58 mM Phenol • pH adjusted to 8.15 with H3PO4. In cases where pH was adjusted to 8.15 after re-suspension of analogues, 0.2 M NaOH was used. Assay (XI) Pharmacokinetic Study in Minipigs

glucagon receptor = target: T1, glucagon receptor (Homo sapiens, UniProt P47871); assay: Assay (I) Glucagon activity (cAMP biosensor, FLIPR); type: cell-based
T1 construct: expressed in transfected cells
T1 sequence (P47871 26-477): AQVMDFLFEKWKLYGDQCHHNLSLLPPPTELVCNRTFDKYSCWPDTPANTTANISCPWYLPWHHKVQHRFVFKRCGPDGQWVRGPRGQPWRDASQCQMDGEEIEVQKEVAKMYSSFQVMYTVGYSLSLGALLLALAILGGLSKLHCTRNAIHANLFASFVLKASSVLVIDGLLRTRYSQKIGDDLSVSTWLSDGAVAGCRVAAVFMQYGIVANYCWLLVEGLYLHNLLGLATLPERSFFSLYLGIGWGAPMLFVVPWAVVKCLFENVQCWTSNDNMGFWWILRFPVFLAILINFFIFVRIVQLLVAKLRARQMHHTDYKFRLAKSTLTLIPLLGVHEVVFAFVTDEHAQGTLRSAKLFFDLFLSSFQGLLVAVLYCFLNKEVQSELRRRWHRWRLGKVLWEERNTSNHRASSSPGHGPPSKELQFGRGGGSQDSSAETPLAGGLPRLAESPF

| SMILES | Chemical stability [Purity loss/14 days 37 C.] [1] | EC50 (glucagon receptor) |
| --- | --- | --- |
| CC[C@H](C)[C@H](NC(=O)[C@H](CC(=O)O)NC(=O)[C@H](CC(C)C)NC(=O)[C@H](Cc1ccc(O)cc1)NC(=O)[C@H](CCCNC(=N)N)NC(=O)[C@H](CO)NC(=O)[C@H](Cc1ccc(O)cc1)NC(=O)[C@H](CC(=O)O)NC(=O)[C@H](CO)NC(=O)[C@@H](NC(=O)[C@H](Cc1ccccc1)NC(=O)[C@@H](NC(=O)CNC(=O)[C@H](CCC(N)=O)NC(=O)[C@H](CO)NC(=O)[C@@H](N)Cc1c[nH]cn1)[C@@H](C)O)[C@@H](C)O)C(=O)N[C@@H](CCCNC(=N)N)C(=O)N[C@@H](CCCNC(=N)N)C(=O)N[C@@H](C)C(=O)N[C@@H](CCC(N)=O)C(=O)N[C@@H](CCC(=O)O)C(=O)N[C@@H](Cc1ccccc1)C(=O)N[C@H](C(=O)N[C@@H](CCCCNC(=O)CC[C@H](NC(=O)CC[C@H](NC(=O)COCCOCCNC(=O)COCCOCCNC(=O)CC[C@H](NC(=O)CCCCCCCCCCCCCCCCC(=O)O)C(=O)O)C(=O)O)C(=O)O)C(=O)N[C@@H](Cc1c[nH]c2ccccc12)C(=O)N[C@@H](CC(C)C)C(=O)N[C@@H](CCC(=O)O)C(=O)N[C@@H](CO)C(=O)N[C@H](C(=O)O)[C@@H](C)O)C(C)C [Example 53, N^ε24-[(4S)-4-carboxy-4-[[(4S)-4-carboxy-4-[[2-[2-[2-[[2-[2-[2-[[(4S)-4-carboxy-4-(17-carboxyheptadecanoylamino)butanoyl]amino]ethoxy]ethoxy]acetyl]amino]ethoxy]ethoxy]acetyl]amino]butanoyl]amino]butanoyl]-[Arg12,Ile16,Glu21,Lys24,Glu27,Ser28]-Glucagon] (H-HSQGTFTSDYSRYLDIRRAQEFVK([γGlu-γGlu-AEEA-AEEA-γGlu-C18 diacid])WLEST-OH) | 2.5% | 0.099 nM |
| CC(C)C[C@H](NC(=O)[C@H](Cc1ccc(O)cc1)NC(=O)[C@H](CCCNC(=N)N)NC(=O)[C@H](CO)NC(=O)[C@H](Cc1ccc(O)cc1)NC(=O)[C@H](CC(=O)O)NC(=O)[C@H](CO)NC(=O)[C@@H](NC(=O)[C@H](Cc1ccccc1)NC(=O)[C@@H](NC(=O)CNC(=O)[C@H](CCC(N)=O)NC(=O)[C@H](CO)NC(=O)[C@@H](N)Cc1c[nH]cn1)[C@@H](C)O)[C@@H](C)O)C(=O)N[C@@H](CCC(=O)O)C(=O)N[C@@H](CO)C(=O)N[C@@H](CCCNC(=N)N)C(=O)N[C@@H](CCCNC(=N)N)C(=O)N[C@@H](C)C(=O)N[C@@H](CCC(N)=O)C(=O)N[C@@H](CC(=O)O)C(=O)N[C@@H](Cc1ccccc1)C(=O)N[C@H](C(=O)N[C@@H](CCCCNC(=O)CC[C@H](NC(=O)CC[C@H](NC(=O)COCCOCCNC(=O)COCCOCCNC(=O)CC[C@H](NC(=O)CCCCCCCCCCCCCCC(=O)O)C(=O)O)C(=O)O)C(=O)O)C(=O)N[C@@H](Cc1c[nH]c2ccccc12)C(=O)N[C@@H](CC(C)C)C(=O)N[C@@H](CC(C)C)C(=O)N[C@@H](CO)C(=O)N[C@H](C(=O)O)[C@@H](C)O)C(C)C [Example 70, N^ε24-[(4S)-4-carboxy-4-[[(4S)-4-carboxy-4-[[2-[2-[2-[[2-[2-[2-[[(4S)-4-carboxy-4-(15-carboxypentadecanoylamino)butanoyl]amino]ethoxy]ethoxy]acetyl]amino]ethoxy]ethoxy]acetyl]amino]butanoyl]amino]butanoyl]-[Arg12,Glu15,Lys24,Leu27,Ser28]-Glucagon] (H-HSQGTFTSDYSRYLESRRAQDFVK([γGlu-γGlu-AEEA-AEEA-γGlu-C16 diacid])WLLST-OH) | 7.6% | 0.14 nM |
| CC(C)C[C@H](NC(=O)[C@H](Cc1ccc(O)cc1)NC(=O)[C@H](CCCCN)NC(=O)[C@H](CO)NC(=O)[C@H](Cc1ccc(O)cc1)NC(=O)[C@H](CC(=O)O)NC(=O)[C@H](CO)NC(=O)[C@@H](NC(=O)[C@H](Cc1ccccc1)NC(=O)[C@@H](NC(=O)CNC(=O)[C@H](CCC(N)=O)NC(=O)[C@H](CO)NC(=O)[C@@H](N)Cc1c[nH]cn1)[C@@H](C)O)[C@@H](C)O)C(=O)N[C@@H](CCC(=O)O)C(=O)N[C@@H](CO)C(=O)N[C@@H](CCCNC(=N)N)C(=O)N[C@@H](CCCNC(=N)N)C(=O)N[C@@H](C)C(=O)N[C@@H](CCC(N)=O)C(=O)N[C@@H](CC(=O)O)C(=O)N[C@@H](Cc1ccccc1)C(=O)N[C@H](C(=O)N[C@@H](CCCCNC(=O)CC[C@H](NC(=O)CC[C@H](NC(=O)COCCOCCNC(=O)COCCOCCNC(=O)CC[C@H](NC(=O)CCCCCCCCCCCCCCCCC(=O)O)C(=O)O)C(=O)O)C(=O)O)C(=O)N[C@@H](Cc1c[nH]c2ccccc12)C(=O)N[C@@H](CC(C)C)C(=O)N[C@@H](CC(C)C)C(=O)N[C@@H](CO)C(=O)N[C@H](C(N)=O)[C@@H](C)O)C(C)C [Example 58, N^ε24-[(4S)-4-carboxy-4-[[(4S)-4-carboxy-4-[[2-[2-[2-[[2-[2-[2-[[(4S)-4-carboxy-4-(17-carboxyheptadecanoylamino)butanoyl]amino]ethoxy]ethoxy]acetyl]amino]ethoxy]ethoxy]acetyl]amino]butanoyl]amino]butanoyl]-[Glu15,Lys24,Leu27,Ser28]-Glucagon amide] | 7.3% | 0.134 nM |
| CC(C)C[C@H](NC(=O)[C@H](CC(=O)O)NC(=O)[C@H](CC(C)C)NC(=O)[C@H](Cc1ccc(O)cc1)NC(=O)[C@H](CCCNC(=N)N)NC(=O)[C@H](CO)NC(=O)[C@H](Cc1ccc(O)cc1)NC(=O)[C@H](CC(=O)O)NC(=O)[C@H](CO)NC(=O)[C@@H](NC(=O)[C@H](Cc1ccccc1)NC(=O)[C@@H](NC(=O)CNC(=O)[C@H](CCC(N)=O)NC(=O)[C@H](CO)NC(=O)[C@@H](N)Cc1c[nH]cn1)[C@@H](C)O)[C@@H](C)O)C(=O)N[C@@H](CCCNC(=N)N)C(=O)N[C@@H](CCCNC(=N)N)C(=O)N[C@@H](C)C(=O)N[C@@H](CCC(N)=O)C(=O)N[C@@H](CC(=O)O)C(=O)N[C@@H](Cc1ccccc1)C(=O)N[C@H](C(=O)N[C@@H](CCCCNC(=O)CC[C@H](NC(=O)CC[C@H](NC(=O)CC[C@H](NC(=O)CC[C@H](NC(=O)CCCCCCCCCCCCCCCCC(=O)O)C(=O)O)C(=O)O)C(=O)O)C(=O)O)C(=O)N[C@@H](Cc1c[nH]c2ccccc12)C(=O)N[C@@H](CC(C)C)C(=O)N[C@@H](CC(C)C)C(=O)N[C@@H](CO)C(=O)N[C@H](C(=O)O)[C@@H](C)O)C(C)C [Example 86, N^ε24-[(4S)-4-carboxy-4-[[(4S)-4-carboxy-4-[[(4S)-4-carboxy-4-[[(4S)-4-carboxy-4-(17-carboxyheptadecanoylamino)butanoyl]amino]butanoyl]amino]butanoyl]amino]butanoyl]-[Arg12,Leu16,Lys24,Leu27,Ser28]-Glucagon] (H-HSQGTFTSDYSRYLDLRRAQDFVK([γGlu-γGlu-γGlu-γGlu-C18 diacid])WLLST-OH) | 3.7% | 0.343 nM |
| CC(C)C[C@H](NC(=O)[C@H](CC(=O)O)NC(=O)[C@H](CC(C)C)NC(=O)[C@H](Cc1ccc(O)cc1)NC(=O)[C@H](CCCNC(=N)N)NC(=O)[C@H](CO)NC(=O)[C@H](Cc1ccc(O)cc1)NC(=O)[C@H](CC(=O)O)NC(=O)[C@H](CO)NC(=O)[C@@H](NC(=O)[C@H](Cc1ccccc1)NC(=O)[C@@H](NC(=O)CNC(=O)[C@H](CCC(N)=O)NC(=O)[C@H](CO)NC(=O)[C@@H](N)Cc1c[nH]cn1)[C@@H](C)O)[C@@H](C)O)C(=O)N[C@@H](CCCNC(=N)N)C(=O)N[C@@H](CCCNC(=N)N)C(=O)N[C@@H](C)C(=O)N[C@@H](CCC(N)=O)C(=O)N[C@@H](CC(=O)O)C(=O)N[C@@H](Cc1ccccc1)C(=O)N[C@H](C(=O)N[C@@H](CCCCNC(=O)CC[C@H](NC(=O)CC[C@H](NC(=O)COCCOCCNC(=O)COCCOCCNC(=O)CC[C@H](NC(=O)CCCCCCCCCCCCCCCCC(=O)O)C(=O)O)C(=O)O)C(=O)O)C(=O)N[C@@H](Cc1c[nH]c2ccccc12)C(=O)N[C@@H](CC(C)C)C(=O)N[C@@H](CC(C)C)C(=O)N[C@H](C(=O)N[C@H](C(=O)O)[C@@H](C)O)[C@@H](C)O)C(C)C [Example 19, N^ε24-[(4S)-4-carboxy-4-[[(4S)-4-carboxy-4-[[2-[2-[2-[[2-[2-[2-[[(4S)-4-carboxy-4-(17-carboxyheptadecanoylamino)butanoyl]amino]ethoxy]ethoxy]acetyl]amino]ethoxy]ethoxy]acetyl]amino]butanoyl]amino]butanoyl]-[Arg^12,Leu^16,Lys^24,Leu^27,Thr^28]-Glucagon] (H-HSQGTFTSDYSRYLDLRRAQDFVK([γGlu-γGlu-AEEA-AEEA-γGlu-C18 diacid])WLLTT-OH) | 4.3% | 0.754 nM |
